According to patent US20170198005A1, “2'-DICHLORO AND 2'-FLUORO-2'-CHLORO NUCLEOSIDE ANALOGUES FOR HCV INFECTION” (IDENIX PHARMACEUTICALS LLC, priority 2013, published 2017):
Read-outs that look alike come from different tables or passages of the source.

Columns and labels:
HCV genotype 1b replicon = experiment: HCV replicon assay (luciferase reporter); type: cell-based; details: Zluc cells, 72 hours of incubation
Experimental: Huh-7-derived cell line (Zluc) that harbors an HCV genotype 1b replicon and a luciferase reporter gene was grown in Dulbecco's Modified Eagle Medium (DMEM) supplemented with 10% fetal bovine serum, 2 mM GlutaMAX, 1% MEM nonessential amino acids, 100 IU/mL penicillin, 100 μg/mL streptomycin, and 0.5 mg/mL Geneticin® (G418). For dose response testing the cells were seeded in 96-well plates at 7.5×10^3 cells per well in a volume of 50 μL, and incubated at 37° C./5% CO2. Drug solutions were made up freshly in Huh-7 media as 2× stocks. Ten additional 5-fold dilutions were prepared from these stocks in DMEM without G418. At least three hours after Zluc cells were seeded, drug treatment was initiated by adding 50 μL of drug dilutions to the plates in duplicate. Final concentrations of drug ranged from 100 μM to 0.0000512 μM. Cells were then incubated at 37° C./5% CO2. […] After 72 hours of incubation, the inhibition of HCV replication was measured by quantification of photons emitted after mono-oxygenation of 5′-fluoroluciferin to oxyfluoroluciferin by firefly luciferase. For this, media was removed from the plates via gentle tapping. Fifty microliters of ONE-glo luciferase assay reagent was added to each well. The plates were shaken gently for 3 min at room temperature and luminescence was measured on a Victor^3 V 1420 multilabel counter (Perkin Elmer) with a 1 second read time using a 700 nm cut-off filter. The EC50 values were calculated from dose response curves from the resulting best-fit equations determined by Microsoft Excel and XLfit 5.2 software.
Compounds presented in Table 1 below were assayed according to the replicon assay described herein.

[1] = Cytotoxicity evaluation, CellTiter-Blue Cell Viability Assay; type: cell-based; details: human
Experimental: (§1) For cytotoxicity evaluation, Zluc cells were treated with compound as described herein, and cell viability was monitored using the CellTiter-Blue Cell Viability Assay (Promega) by adding 20 μL of the assay solution to each well. The plates were then incubated at 37° C./5% CO2 for at least 3 hours. Fluorescence was detected in plates using excitation and emission wavelengths of 531 and 595 nm, respectively, in a Victor^3 V 1420 multilabel counter (Perkin Elmer) and CC50 values were determined using Microsoft Excel and XLfit 5.2 software.

[2] = tested on: Zluc cells (Huh-7-derived cell line); experiment: as above; type: cell-based; details: read-out: HCV Replicon CC50
Experimental: as §1

[3] = target: T1, wild-type HCV genotype 1b NS5B protein (HCV polymerase) (Hepatitis C virus genotype 1b, UniProt Q9WMX2); experiment: HCV polymerase enzyme assay, wild-type; type: biochemical
T1 construct: HCV genotype 1b NS5B protein were used to generate recombinant HCV polymerases (with a deletion of the 21 carboxy terminal amino acids); made in house
Text: (§2) Test compounds in the form of nucleoside triphosphates were examined for inhibitory activity against purified HCV polymerase in a standard assay. Bacterial expression constructs encoding the approximately 65 kDa HCV genotype 1b NS5B protein were used to generate recombinant HCV polymerases (with a deletion of the 21 carboxy terminal amino acids). Both the wild-type genotype 1b protein and protein containing the S282T mutation were expressed and purified for use in the enzymatic activity assay.
(§3) The enzymatic activity assay measured the inhibitory effect of increasing concentrations of test compound on the incorporation of α-[^33P]-labeled nucleotide into trichloroacetic acid-precipitable material. Recombinant polymerase and synthetic RNA template were combined in reaction buffer containing ribonucleoside triphosphates, α-[^33P]-labeled nucleotide and eight concentrations of test compound in three-fold dilutions. Reactions were incubated for two hours at 30° C.
(§4) Reactions were terminated by the addition of ice-cold trichloroacetic acid and sodium pyrophosphate to promote precipitation of newly-synthesized ribonucleic acid. Precipitable material from the reactions was collected by filtration onto 96-well filter plates, washed extensively with water, and quantified by liquid scintillation.
(§5) The inhibitory activity of test compounds was determined by fitting results to dose-response curves using XLfit software.

[4] = target: T2, HCV genotype 1b NS5B protein containing the S282T mutation (Hepatitis C virus genotype 1b, UniProt Q9WMX2, S2701T); experiment: HCV polymerase enzyme assay, S282T mutant; type: biochemical
T2 construct: HCV genotype 1b NS5B protein were used to generate recombinant HCV polymerases (with a deletion of the 21 carboxy terminal amino acids); made in house
Text: as §2, §3, §4, §5

[5] = Pharmacokinetics of liver triphosphate following a single oral dose in CD-1 mice; type: in vivo; details: CD-1 male mice, single oral dose 10 mg/kg in PEG 200, liver triphosphate at 4, 12 and 24 hours, AUC given at 1 μmol/kg
Experimental: A single oral dose of test compound at 10 mg/kg in PEG 200 (dose volume 5 mL/kg) was administered to nine CD-1 male mice. Five untreated animals were used for the collection of control plasma and liver. Terminal plasma and liver samples were collected from three animals per time point at 4, 12 and 24 hours post dose. Liver specimens were collected from all animals immediately after the incision. Freezing forceps stored in liquid nitrogen were used to freeze the liver before excision.
Liver samples were analyzed for the active species nucleoside triphosphate by LC-MS/MS. The triphosphate levels were assayed by homogenizing (on ice) a known weight of mouse liver with 4× volume of 0.95 M trichloroacetic acid (TCA). Internal standard solution was added to the homogenate followed by neutralization with 20% ammonium hydroxide solution and addition of 500 μL 1% formic acid. The tissue samples were extracted by weak anion exchange solid phase extraction (SPE). Post extraction, the eluates were evaporated under nitrogen, followed by reconstitution before injection onto the LC-MS/MS system. […] The analyte was detected and quantified by tandem mass spectrometry in positive ion mode on an API4000 equipped with a Turbo Ionspray® interface.

[6] = Zluc cells (Huh-7-derived HCV replicon cell line)
[7] = Zluc cells, read-out: HCV Replicon CC50

Row | SMILES | EC50 (HCV genotype 1b replicon; Hepatitis C virus, 72 h) [µM] | CC50 [1, 6] [µM] | also measured
1 | CC(C)OC(=O)[C@@H](C)NP(=O)(OC[C@H]1C[C@@H](n2ccc(N)nc2=O)C(Cl)(Cl)[C@@H]1O)Oc1ccccc1 (single isomer, unassigned) [103a (Diast. 2)] |  |  | EC50 (HCV genotype 1b replicon): > 10 µM
2 | Nc1nc2c(ncn2[C@@H]2O[C@H](CO)[C@@H](O)[C@]2(F)Cl)c(=O)[nH]1 [Compound 1005] | > 10 | > 50 | 
3 | CC(C)OC(=O)[C@H](C)NP(=O)(OCCSC(=O)C(C)(C)C)OC[C@H]1O[C@@H](n2cnc3c(N)ncnc32)C(Cl)(Cl)[C@@H]1O (single isomer, unassigned) [117b (Diast. 2)] |  |  | EC50 (HCV genotype 1b replicon): 0.25 to 1 µM; CC50 [2]: ≤ 50 µM
4 | O=c1ccn([C@@H]2O[C@H](COP(=O)(O)OP(=O)(O)OP(=O)(O)O)[C@@H](O)C2(Cl)Cl)c(=O)[nH]1 [Compound 2002] |  |  | IC50 [3]: < 0.25 µM; IC50 [4]: 1 to 10 µM
5 | O=c1ccn([C@@H]2O[C@H](CO)[C@@H](O)[C@]2(F)Cl)c(=O)[nH]1 [Compound 1006] | > 10 | > 50 | 
6 | O=c1ccn([C@@H]2O[C@H](CO)[C@@H](O)[C@@]2(F)Cl)c(=O)[nH]1 [Compound 1007] | > 10 | > 50 | 
7 | CC(C)OC(=O)[C@@H](C)NP(=O)(OC[C@H]1C[C@@H](n2ccc(N)nc2=O)C(Cl)(Cl)[C@@H]1O)Oc1ccccc1 (mixture of isomers) [103a (Diast. Mix)] | 1 to 10 |  | CC50 [1, 7]: > 50 µM
8 | O=c1ccn([C@@H]2O[C@H](COP(=O)(O)OP(=O)(O)OP(=O)(O)O)[C@@H](O)[C@]2(F)Cl)c(=O)[nH]1 [Compound 2004] |  |  | IC50 [3]: < 0.25 µM; IC50 [4]: 1 to 10 µM
9 | Nc1ncnc2c1ncn2[C@@H]1O[C@H](COP(=O)(O)OP(=O)(O)OP(=O)(O)O)[C@@H](O)C1(Cl)Cl [Compound 2011] |  |  | IC50 [3]: 0.25 to 1 µM
10 | CC(C)OP1(=O)OC[C@H]2O[C@@H](n3ccc(N)nc3=O)C(Cl)(Cl)[C@@H]2O1 (single isomer, unassigned) [104 (Diast. 2)] |  |  | Ms Liver TP AUC ([5]; listed as 104 Diast. 2, 10 mg/kg): +++ (+++ ≦ 2000); EC50 (HCV genotype 1b replicon): > 10 µM; CC50 [2]: > 50 µM
11 | CC(C)OC(=O)[C@@H](C)NP(=O)(OC[C@H]1O[C@@H](n2cnc3c(=O)[nH]c(N)nc32)[C@@](F)(Cl)[C@@H]1O)Oc1ccccc1 (mixture of isomers) [147a (Diast. Mix)] | > 10 |  | CC50 [1, 7]: > 50 µM
12 | CC(C)OC(=O)[C@H](C)N[P@](=O)(OCCSC(=O)C(C)(C)C)OC[C@H]1O[C@@H](n2ccc(N)nc2=O)C(Cl)(Cl)[C@@H]1O (single isomer, unassigned) [101b (Diast. 2)] |  |  | EC50 (HCV genotype 1b replicon): 1 to 10 µM; CC50 [2]: > 50 µM
13 | Nc1nc2c(ncn2[C@@H]2O[C@H](COP(=O)(O)OP(=O)(O)OP(=O)(O)O)[C@@H](O)[C@]2(F)Cl)c(=O)[nH]1 [Compound 2003] |  |  | IC50 [3]: < 0.25 µM; IC50 [4]: < 0.25 µM
14 | O=c1ccn([C@@H]2O[C@H](CO)[C@@H](O)C2(Cl)Cl)c(=O)[nH]1 [Compound 1002] | > 10 | > 50 | 
15 | Nc1ccn([C@@H]2O[C@H](CO)[C@@H](O)C2(Cl)Cl)c(=O)n1 [Compound 1001] | > 10 | > 50 | 
16 | CC(C)OC(=O)[C@H](C)NP(=O)(OCCSC(=O)C(C)(C)C)OC[C@H]1O[C@@H](n2cnc3c(N)ncnc32)C(Cl)(Cl)[C@@H]1O (single isomer, unassigned) [117b (Diast. 1)] | 0.25 to 1 | ≤ 50 | 
17 | O=c1ccn([C@@H]2O[C@H](COP(=O)(O)OP(=O)(O)OP(=O)(O)O)[C@@H](O)[C@@]2(F)Cl)c(=O)[nH]1 [Compound 2005] |  |  | IC50 [3]: < 0.25 µM; IC50 [4]: 1 to 10 µM
18 | CC(C)OC(=O)[C@@H](C)NP(=O)(OC[C@H]1C[C@@H](n2ccc(N)nc2=O)C(Cl)(Cl)[C@@H]1O)Oc1ccccc1 (single isomer, unassigned) [103a (Diast. 1)] | > 10 |  | CC50 [1, 7]: > 50 µM
19 | CC(C)OC(=O)[C@H](C)N[P@](=O)(OCCSC(=O)C(C)(C)C)OC[C@H]1O[C@@H](n2ccc(N)nc2=O)[C@@](F)(Cl)[C@@H]1O (single isomer, unassigned) [102b (Diast. 1)] | > 10 | > 50 | 
20 | CC(C)OC(=O)[C@H](C)N[P@](=O)(OCCSC(=O)C(C)(C)C)OC[C@H]1O[C@@H](n2ccc(N)nc2=O)[C@@](F)(Cl)[C@@H]1O (mixture of isomers) [102b (Diast. Mix)] | > 10 | > 50 | 
21 | Nc1ccn([C@@H]2O[C@H](COP(=O)(O)OP(=O)(O)OP(=O)(O)O)[C@@H](O)C2(Cl)Cl)c(=O)n1 [Compound 2001] |  |  | IC50 [3]: < 0.25 µM; IC50 [4]: 0.25 to 1 µM
22 | CC(C)OC(=O)[C@H](C)N[P@](=O)(OCCSC(=O)C(C)(C)C)OC[C@H]1O[C@@H](n2ccc(N)nc2=O)C(Cl)(Cl)[C@@H]1O (single isomer, unassigned) [101b (Diast. 1)] | 1 to 10 | > 50 | 
23 | CC(C)OP1(=O)OC[C@H]2O[C@@H](n3ccc(N)nc3=O)C(Cl)(Cl)[C@@H]2O1 (single isomer, unassigned) [104 (Diast. 1)] |  | > 50 | Ms Liver TP AUC ([5]; listed as 104 Diast. 1, 10 mg/kg): ++++ (2000 < ++++); EC50 (HCV genotype 1b replicon): 1 to 10 µM
24 | Nc1ncnc2c1ncn2[C@@H]1O[C@H](CO)[C@@H](O)C1(Cl)Cl [Compound 1011] | > 10 | > 50 | 
25 | Nc1ccn([C@@H]2O[C@H](CO)[C@@H](O)[C@]2(F)Cl)c(=O)n1 [Compound 1004] | 1 to 10 | > 50 | 
26 | CC(C)OC(=O)[C@H](C)N[P@](=O)(OCCSC(=O)C(C)(C)C)OC[C@H]1O[C@@H](n2ccc(N)nc2=O)[C@@](F)(Cl)[C@@H]1O (single isomer, unassigned) [102b (Diast. 2)] |  |  | EC50 (HCV genotype 1b replicon): > 10 µM; CC50 [2]: > 50 µM
